The source of these data is US5380825A (Sigma Chemical Company, priority 1991, dated 1995).

Common to all, as to assay type: binding
One assay has as its system AZT antibodies. Kind of assay: Immunological activity / tracer performance in FPIA for AZT (qualitative). As to conditions: for inhibition in FPIA for AZT: inhibitor of polarization. The protocol: (§1) An equal volume of precipitation reagent was added per microcentrifuge tube. The tubes were centrifuged at greater than 9,000×g for 1 minute.
(§2) (2) A 17.5 ul sample of each serum extract was brought to approximately pH 7-8 by the addition of buffer.
(§3) (4) After an appropriate incubation time, the polarization of each reaction mixture was determined using a polarization spectrofluorimeter.

Assay [1] relates to antisera to AZT, Rabbit 2 (immunized with AZT-3-V:BSA). Nature of the assay: FPIA comparison of tracers, antiserum of Rabbit 2 (Table 1). Particulars: for Polarization Units (P × 1000): 1 pmole of tracer, antiserum at the given titer; for ED50 AZT: concentration of AZT giving 50% reduction in polarization of this tracer relative to 0 tube; for Titer [Ab]: dilution of antiserum required to obtain the given polarization units with 1 pmole of tracer. How it is done:
(§4) The immunogen (1 mg in 1 ml) was emulsified with an equal volume of Freund's Complete Adjuvant and injected intradermally into each of two female albino rabbits. The process was repeated in two weeks. Two weeks later, monthly subcutaneous booster injections were begun with 0.5 mg in 0.5 ml of the immunogen and 0.5 ml of Freund's Incomplete Adjuvant per animal. The rabbits were bled biweekly by a marginal ear vein technique beginning six weeks after the primary immunization. The blood collected was refrigerated, allowing clots to form, and the supernatant (antiserum) retained. The antiserum from each rabbit was collected and stored, either at -20° C. without preservative, or at 4° C. after addition of sodium azide to a final concentration of 0.1%. The same schedule was followed for each immunogen. Rabbits immunized produced antibodies to AZT.
(§5) Fluorescence Polarization Immunoassay for AZT
as §1, §2, §3
(§6) As further illustration of the invention polyclonal antibodies were raised in two rabbits by immunization with the conjugate of Example 4 (AZT-3-V:BSA) as is more fully described in Example 45 and stored at 4° C. with 0.1% sodium azide. A number of tracers were then compared as to their performance in FPIA using the antisera raised from two rabbits.
(§7) ^(1) TITER was defined as the dilution of antiserum (i.e., [Ab])
(§8) required to obtain the given polarization units (P × 1000) with 1
(§9) required to give a 50% reduction in polarization relative to a control (0
(§10) tube) containing no unlabeled AZT.

Assay [2] relates to antisera to AZT, Rabbit 1 (immunized with AZT-3-V:BSA). Kind of assay: FPIA comparison of tracers, antiserum of Rabbit 1 (Table 1). As to conditions: for Polarization Units (P × 1000): 1 pmole of tracer, antiserum at the given titer; for ED50 AZT: concentration of AZT giving 50% reduction in polarization of this tracer relative to 0 tube; for Titer [Ab]: dilution of antiserum required to obtain the given polarization units with 1 pmole of tracer. The protocol:
as §4, §5, §1, §2, §3, §6, §7, §8, §9, §10

Converted amounts (≈) assume the structure as drawn.

For the compound “3-carbethoxy-3'-azido-3'-deoxythymidine [Example 21]”, the “immunological activity in FPIA for AZT” value in the assay with AZT antibodies (qualitative) was “immunologically active”. In the assay on AZT antibodies (relative to AZT), the “"cross-reactivity" relative to AZT in an AZT assay by FPIA” value was “approximately 110%”.
As for `Cc1cn([C@H]2C[C@H](N=[N+]=[N-])[C@@H](CO)O2)c(=O)n(CCNc2nc(Cl)nc(Nc3ccc4c(c3)C(=O)OC43c4ccc(O)cc4Oc4cc(O)ccc43)n2)c1=O` [AZT--(CH2)n --NH:DTAF, n=2], in assay [1], the “Polarization Units (P × 1000)” value is 156 P × 1000, the “ED50 AZT” value was over 8.0 µg/mL and the “Titer [Ab]” value is recorded as 125. Also, in assay [2], the “Polarization Units (P × 1000)” value is listed as 162 P × 1000, the “ED50 AZT” value amounted to 4.0 µg/mL (≈ 5.2 µM) and the “Titer [Ab]” value worked out at 250.
As for `Cc1cn([C@H]2C[C@H](N=[N+]=[N-])[C@@H](CO)O2)c(=O)n(CCCCC(=O)Nc2ccc3c(c2)C(=O)OC32c3ccc(O)cc3Oc3cc(O)ccc32)c1=O` [Example 6], in assay [1], the “Polarization Units (P × 1000)” value came out at 175 P × 1000, the “ED50 AZT” value was 8.0 µg/mL (≈ 11.5 µM) and the “Titer [Ab]” value is given as 130. Also, in assay [2], the “Polarization Units (P × 1000)” value is 179 P × 1000, the “ED50 AZT” value is 4.0 µg/mL (≈ 5.74 µM) and the “Titer [Ab]” value worked out at 300. For the same compound, the “immunological activity in FPIA for AZT” value in the assay on AZT antibodies (qualitative) is listed as “immunologically active”.
As for `Cc1cn([C@H]2C[C@H](N=[N+]=[N-])[C@@H](CO)O2)c(=O)n(CCCCC(=O)NCCNC(=S)Nc2ccc3c(c2)C(=O)OC32c3ccc(O)cc3Oc3cc(O)ccc32)c1=O` [Example 7, 5-[[5-(3'-azido-3'-deoxythymid-3-yl)-valeramido]-ethylthiocarbamyl]-fluorescein], in assay [1], the “Polarization Units (P × 1000)” value was 197 P × 1000, the “ED50 AZT” value is over 8.0 µg/mL and the “Titer [Ab]” value came to 3. In assay [2], the “Titer [Ab]” value is 1.
For the compound `Cc1cn([C@H]2C[C@H](N=[N+]=[N-])[C@@H](CO)O2)c(=O)n(CCCC(=O)Nc2ccc3c(c2)C(=O)OC32c3ccc(O)cc3Oc3cc(O)ccc32)c1=O` [Example 13, 5-[4-(3'-azido-3'-deoxythymid-3-yl)-butyramido]-fluorescein], in assay [1], the “Polarization Units (P × 1000)” value is 179 P × 1000, the “ED50 AZT” value was found to be 3.9 µg/mL (≈ 5.71 µM) and the “Titer [Ab]” value is listed as 115. In assay [2], the “Polarization Units (P × 1000)” value amounted to 170 P × 1000, the “ED50 AZT” value came out at 1.3 µg/mL (≈ 1.9 µM) and the “Titer [Ab]” value amounted to 450. For the same compound, the “affinity and sensitivity as tracer” value with AZT antibodies (qualitative) is “satisfactory affinity and sensitivity”.
With `Cc1cn([C@H]2C[C@H](N=[N+]=[N-])[C@@H](CO)O2)c(=O)n(CCCC(=O)Nc2ccc3c(c2)C2(OC3=O)c3ccc(O)cc3Oc3cc(O)ccc32)c1=O` [Example 14, 6-[4-(3'-azido-3'-deoxythymid-3-yl)-butyramido]-fluorescein], in assay [1], the “Polarization Units (P × 1000)” value stood at 159 P × 1000, the “ED50 AZT” value was 1.4 µg/mL (≈ 2.05 µM) and the “Titer [Ab]” value is reported as 74. In addition, in assay [2], the “Polarization Units (P × 1000)” value came to 167 P × 1000, the “ED50 AZT” value came out at 0.6 µg/mL (≈ 0.879 µM) and the “Titer [Ab]” value came to 150.
`Cc1cn([C@H]2C[C@H](N=[N+]=[N-])[C@@H](CO)O2)c(=O)n(CCCC(=O)NCCNC(=S)Nc2ccc3c(c2)C(=O)OC32c3ccc(O)cc3Oc3cc(O)ccc32)c1=O` [Example 15, 5-[[4-(3'-azido-3'-deoxythymid-3-yl)-butyramido]-ethylthiocarbamyl]-fluorescein]: in assay [1], the “Polarization Units (P × 1000)” value is 184 P × 1000, the “ED50 AZT” value was determined as 4.0 µg/mL (≈ 5.1 µM) and the “Titer [Ab]” value amounted to 73. In assay [2], the “Polarization Units (P × 1000)” value is on record as 165 P × 1000, the “ED50 AZT” value was determined as 4.0 µg/mL (≈ 5.1 µM) and the “Titer [Ab]” value is 200. Besides, the “immunological activity in FPIA for AZT” value with AZT antibodies (qualitative) was “Immunological activity against AZT was confirmed”.
As to `COC(=O)C(Cc1ccc(O)cc1)NC(=O)CCCn1c(=O)c(C)cn([C@H]2C[C@H](N=[N+]=[N-])[C@@H](CO)O2)c1=O` (stereo partly shown) [Example 16, 2-[4-(3'-azido-3'-deoxythymid-3-yl)-butyramido]-3-(4-hydroxyphenyl)-propionic acid methyl ester], the “immunological activity in FPIA for AZT” value in the assay with AZT antibodies (qualitative) is “immunologically active”.
In the case of `COc1nc(NCCn2c(=O)c(C)cn([C@H]3C[C@H](N=[N+]=[N-])[C@@H](CO)O3)c2=O)nc(Nc2ccc3c(c2)C(=O)OC32c3ccc(O)cc3Oc3cc(O)ccc32)n1` [Example 17, 3-[2-[4-(Fluoresceinyl-5)-6-methoxy-s-triazin-2-yl]aminoethyl]-3'-azido-3'-deoxythymidine], in assay [1], the “Polarization Units (P × 1000)” value worked out at 179 P × 1000, the “ED50 AZT” value was 4.9 µg/mL (≈ 6.41 µM) and the “Titer [Ab]” value is listed as 100. Further, in assay [2], the “Polarization Units (P × 1000)” value is 160 P × 1000, the “ED50 AZT” value is 2.5 µg/mL (≈ 3.27 µM) and the “Titer [Ab]” value is given as 190. For the same compound, the “immunological activity in FPIA for AZT” value with AZT antibodies (qualitative) was “immunologically active”.
`Cc1cn([C@H]2C[C@H](N=[N+]=[N-])[C@@H](CO)O2)c(=O)n(CCCC(=O)NCC(=O)N[C@@H](Cc2ccc(O)cc2)C(=O)O)c1=O` [Example 18, N-[4-(3'-azido-3'-deoxythymid-3-yl)-butyryl]-glycyl-L-tyrosine]: in the assay with AZT antibodies (qualitative), the “immunological activity in FPIA for AZT” value was “immunologically active”.
Take `Cc1cn([C@H]2C[C@H](N=[N+]=[N-])[C@@H](CO)O2)c(=O)n(CC(=O)O)c1=O` [Example 19, 3-carboxymethyl-3'-azido-3'-deoxythymidine]: in the assay with AZT antibodies (qualitative), the “immunological activity in FPIA for AZT” value is “immunological activity”.
For the compound `Cc1cn([C@H]2C[C@H](N=[N+]=[N-])[C@@H](CO)O2)c(=O)n(CC(=O)Nc2ccc3c(c2)C(=O)OC32c3ccc(O)cc3Oc3cc(O)ccc32)c1=O` [Example 22, 5-[2-(3'-azido-3'-deoxythymid-3-yl)-acetamido]-fluorescein], in assay [1], the “Polarization Units (P × 1000)” value came out at 150 P × 1000, the “ED50 AZT” value came to 2.0 µg/mL (≈ 3.06 µM) and the “Titer [Ab]” value turned out to be 105. In assay [2], the “Polarization Units (P × 1000)” value was found to be 164 P × 1000, the “ED50 AZT” value is 1.4 µg/mL (≈ 2.14 µM) and the “Titer [Ab]” value was 150.
With `Cc1cn([C@H]2C[C@H](N=[N+]=[N-])[C@@H](CO)O2)c(=O)n(CC(=O)NCCNC(=S)Nc2ccc3c(c2)C(=O)OC32c3ccc(O)cc3Oc3cc(O)ccc32)c1=O` [Example 23, 5-[[2-(3'-azido-3'-deoxythymid-3-yl)-acetamido]-ethylthiocarbamyl]-fluorescein], in assay [1], the “Polarization Units (P × 1000)” value amounted to 164 P × 1000, the “ED50 AZT” value came out at 1.4 µg/mL (≈ 1.85 µM) and the “Titer [Ab]” value is 28. For the same compound, in assay [2], the “Polarization Units (P × 1000)” value is given as 173 P × 1000, the “ED50 AZT” value turned out to be 2.4 µg/mL (≈ 3.17 µM) and the “Titer [Ab]” value stood at 53.
Regarding `Cc1cn([C@H]2C[C@H](N=[N+]=[N-])[C@@H](CO)O2)c(=O)n(CCCN2C(=O)c3ccccc3C2=O)c1=O` [Example 26, 3-(3-phthalimidopropyl)-3'-azido-3'-deoxythymidine], the “immunological activity in FPIA for AZT” value in the assay on AZT antibodies (qualitative) is reported as “immunologically active”.
Turning to `Cc1cn([C@H]2C[C@H](N=[N+]=[N-])[C@@H](CO)O2)c(=O)n(CCCN)c1=O` [Example 28, 3-(3-aminopropyl)-3'-azido-3'-deoxythymidine], the “immunological activity in FPIA for AZT” value with AZT antibodies (qualitative) was “immunologically active”.
Consider `Cc1cn([C@H]2C[C@H](N=[N+]=[N-])[C@@H](CO)O2)c(=O)n(CCNC(=O)CCc2ccc(O)cc2)c1=O` [Example 33, 3-[2-[3-(4-hydroxyphenyl)-propionamido]-ethyl]-3'-azido-3'-deoxythymidine], for which, in the assay on AZT antibodies (qualitative), the “inhibition in FPIA for AZT” value is listed as “effective inhibitor of polarization”.
Turning to `Cc1cn([C@H]2C[C@H](N=[N+]=[N-])[C@@H](CO)O2)c(=O)n(CCCNC(=S)Nc2ccc3c(c2)C2(OC3=O)c3cc(I)c(O)c(I)c3Oc3c2cc(I)c(O)c3I)c1=O` [Example 36, 6-[3-(3 '-amido-3'-deoxythymid-3-yl)-propyl-thiocarbamyl]-erythrosin], the “immunological activity in FPIA for AZT” value in the assay on AZT antibodies (qualitative) was “immunologically active”.
On the same count and under the same terms, as for `Cc1cn([C@H]2C[C@H](N=[N+]=[N-])[C@@H](COC(=O)CCC(=O)NCCNC(=S)Nc3ccc4c(c3)C(=O)OC43c4ccc(O)cc4Oc4cc(O)ccc43)O2)c(=O)[nH]c1=O` [Example 42], the entry is “Immunoactivity of this label was demonstrated”.
`O=C(O)CCc1ccc(O)cc1` [HPPA, 3-(4-hydroxyphenyl)propionic acid, reference compound]: in the assay on AZT antibodies (qualitative), the “inhibition in FPIA for AZT” value is on record as “unlike 3-(4-hydroxyphenyl)propionic acid (HPPA), was an effective inhibitor of polarization”.
